For 24 molecules, IC50, Ki and Emax results are on record in ChEMBL document CHEMBL5625226, “Synthesis, computational and experimental pharmacological studies for (thio)ether-triazine 5-HT6R ligands with noticeable action on AChE/BChE and chalcogen-dependent intrinsic activity in search for new class of drugs against Alzheimer's disease” (Eur J Med Chem, 2023).

For experiment [1], the target named is Acetylcholinesterase (Electrophorus electricus, UniProt O42275).
Description: Inhibition of electric eel AChE using acetylthiocholine iodide as substrate preincubated with compounds for 20 mins followed by substrate addition and measured after 5 mins by Ellman's method
For experiment [2], the system named is HepG2. As to the kind of experiment: cells. The note with it: Homo sapiens, HepG2, 1 h.
Description: Neuroprotective activity against H202 induced oxidative stress in human HepG2 cells measured after 1 hr by DCFH-DA staining based analysis
Experiment [3] has as its system SH-SY5Y. As to the kind of experiment: cells. The settings on record: Homo sapiens, 1 h.
Description: Neuroprotective activity against H202 induced oxidative stress in human SH-SY5Y cells measured after 1 hr by DCFH-DA staining based analysis
The target of experiment [4] is Cholinesterase (Equus caballus, UniProt P81908).
Description: Inhibition of equine serum BChE using butyrylthiocholine iodide as substrate preincubated for 20 mins followed by substrate addition and measured after 5 mins by Ellman's method
For experiment [5], the target named is 5-hydroxytryptamine receptor 7 (Homo sapiens, UniProt P34969). As to the kind of experiment: biochemical.
For experiment [6], the target named is 5-hydroxytryptamine receptor 2A (Homo sapiens, UniProt P28223). The experiment in a line: biochemical.
Experiment [7] addresses D(2) dopamine receptor (Homo sapiens, UniProt P14416). As to the kind of experiment: biochemical.
Experiment [8] concerns the target T1, 5-hydroxytryptamine receptor 6 (Homo sapiens, UniProt P50406). The experiment in a line: biochemical.
The target in experiment [9] is T1, 5-hydroxytryptamine receptor 6. The note with it: 1321N1, filed as antagonist, dose 10.0 mM, time 30.0 min.
Experiment [10] in a line: cells. The settings on record: Rattus norvegicus, Whole blood cell, 0.05 h.
Description: Antiplatelet activity against rat whole blood assessed as inhibition of collagen induced platelet aggregation measured after 3 mins

The structures appear in SMILES notation.

D(2) dopamine receptor, sequence (P14416 whole entry): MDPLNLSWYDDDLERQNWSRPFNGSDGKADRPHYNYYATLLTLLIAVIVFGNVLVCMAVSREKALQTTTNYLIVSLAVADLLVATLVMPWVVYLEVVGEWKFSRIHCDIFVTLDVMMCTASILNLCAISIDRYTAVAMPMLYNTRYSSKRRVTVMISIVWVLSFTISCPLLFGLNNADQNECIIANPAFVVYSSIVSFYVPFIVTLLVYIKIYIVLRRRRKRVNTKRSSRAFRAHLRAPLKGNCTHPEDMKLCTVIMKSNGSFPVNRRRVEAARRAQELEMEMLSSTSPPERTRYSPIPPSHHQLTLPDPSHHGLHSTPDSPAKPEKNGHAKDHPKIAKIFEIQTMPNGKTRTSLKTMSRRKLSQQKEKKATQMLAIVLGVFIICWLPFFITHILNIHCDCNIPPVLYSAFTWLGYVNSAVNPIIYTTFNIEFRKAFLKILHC
Cholinesterase, sequence (P81908 whole entry): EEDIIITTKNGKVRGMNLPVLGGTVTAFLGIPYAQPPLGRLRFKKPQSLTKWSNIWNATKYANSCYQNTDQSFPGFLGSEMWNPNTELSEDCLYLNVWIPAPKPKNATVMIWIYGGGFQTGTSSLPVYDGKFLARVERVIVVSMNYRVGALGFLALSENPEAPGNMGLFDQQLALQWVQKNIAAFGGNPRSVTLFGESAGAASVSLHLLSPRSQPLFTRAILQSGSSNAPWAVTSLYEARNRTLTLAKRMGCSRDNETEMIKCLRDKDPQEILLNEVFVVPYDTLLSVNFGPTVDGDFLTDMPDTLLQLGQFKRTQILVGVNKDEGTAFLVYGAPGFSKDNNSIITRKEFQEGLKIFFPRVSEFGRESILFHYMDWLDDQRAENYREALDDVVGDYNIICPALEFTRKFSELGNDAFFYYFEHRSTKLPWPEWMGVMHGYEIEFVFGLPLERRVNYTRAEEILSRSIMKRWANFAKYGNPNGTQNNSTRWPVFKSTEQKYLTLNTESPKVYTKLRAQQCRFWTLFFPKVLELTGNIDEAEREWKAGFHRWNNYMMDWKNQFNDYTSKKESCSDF
Acetylcholinesterase, sequence (O42275 whole entry): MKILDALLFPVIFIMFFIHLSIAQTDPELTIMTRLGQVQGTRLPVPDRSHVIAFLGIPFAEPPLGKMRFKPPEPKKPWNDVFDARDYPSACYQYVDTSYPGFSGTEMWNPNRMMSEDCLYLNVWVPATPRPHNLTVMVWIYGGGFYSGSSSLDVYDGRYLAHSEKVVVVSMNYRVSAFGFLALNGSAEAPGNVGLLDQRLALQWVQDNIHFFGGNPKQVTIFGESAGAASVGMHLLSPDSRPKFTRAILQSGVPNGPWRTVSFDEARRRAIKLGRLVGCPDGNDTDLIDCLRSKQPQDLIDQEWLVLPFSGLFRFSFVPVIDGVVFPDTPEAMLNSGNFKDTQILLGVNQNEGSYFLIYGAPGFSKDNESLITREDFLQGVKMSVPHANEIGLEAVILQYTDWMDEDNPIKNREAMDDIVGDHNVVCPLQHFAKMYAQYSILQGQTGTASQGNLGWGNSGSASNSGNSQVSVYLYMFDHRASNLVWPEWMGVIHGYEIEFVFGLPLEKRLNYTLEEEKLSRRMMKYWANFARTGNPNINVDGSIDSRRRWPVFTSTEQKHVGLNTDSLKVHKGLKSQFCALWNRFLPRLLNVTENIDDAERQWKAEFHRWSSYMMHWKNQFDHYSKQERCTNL
5-hydroxytryptamine receptor 7, sequence (P34969 whole entry): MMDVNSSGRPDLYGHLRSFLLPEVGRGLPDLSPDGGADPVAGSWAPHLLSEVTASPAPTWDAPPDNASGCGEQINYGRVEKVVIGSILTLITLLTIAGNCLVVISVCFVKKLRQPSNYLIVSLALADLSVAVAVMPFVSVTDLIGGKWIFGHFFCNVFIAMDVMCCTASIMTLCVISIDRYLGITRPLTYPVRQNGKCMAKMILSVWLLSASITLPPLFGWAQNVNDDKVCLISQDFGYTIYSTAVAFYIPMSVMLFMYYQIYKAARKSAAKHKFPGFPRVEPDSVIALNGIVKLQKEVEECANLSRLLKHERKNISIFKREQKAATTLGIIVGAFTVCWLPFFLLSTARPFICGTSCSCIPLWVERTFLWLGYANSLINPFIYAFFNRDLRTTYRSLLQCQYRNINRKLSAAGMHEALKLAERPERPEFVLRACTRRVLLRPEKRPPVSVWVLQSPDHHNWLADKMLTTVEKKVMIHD
5-hydroxytryptamine receptor 2A, sequence (P28223 whole entry): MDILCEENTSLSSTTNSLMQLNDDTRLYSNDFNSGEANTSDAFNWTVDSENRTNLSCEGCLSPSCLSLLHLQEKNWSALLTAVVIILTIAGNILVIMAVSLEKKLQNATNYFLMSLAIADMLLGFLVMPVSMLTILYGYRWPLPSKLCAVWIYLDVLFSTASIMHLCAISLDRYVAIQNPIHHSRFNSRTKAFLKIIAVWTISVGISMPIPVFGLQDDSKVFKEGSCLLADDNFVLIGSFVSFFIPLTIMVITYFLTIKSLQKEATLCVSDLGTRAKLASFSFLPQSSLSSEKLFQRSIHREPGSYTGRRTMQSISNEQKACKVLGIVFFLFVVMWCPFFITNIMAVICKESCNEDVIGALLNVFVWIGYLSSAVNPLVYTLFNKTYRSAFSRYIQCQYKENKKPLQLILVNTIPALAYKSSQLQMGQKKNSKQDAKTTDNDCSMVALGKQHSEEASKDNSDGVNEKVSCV
T1 sequence (P50406 whole entry): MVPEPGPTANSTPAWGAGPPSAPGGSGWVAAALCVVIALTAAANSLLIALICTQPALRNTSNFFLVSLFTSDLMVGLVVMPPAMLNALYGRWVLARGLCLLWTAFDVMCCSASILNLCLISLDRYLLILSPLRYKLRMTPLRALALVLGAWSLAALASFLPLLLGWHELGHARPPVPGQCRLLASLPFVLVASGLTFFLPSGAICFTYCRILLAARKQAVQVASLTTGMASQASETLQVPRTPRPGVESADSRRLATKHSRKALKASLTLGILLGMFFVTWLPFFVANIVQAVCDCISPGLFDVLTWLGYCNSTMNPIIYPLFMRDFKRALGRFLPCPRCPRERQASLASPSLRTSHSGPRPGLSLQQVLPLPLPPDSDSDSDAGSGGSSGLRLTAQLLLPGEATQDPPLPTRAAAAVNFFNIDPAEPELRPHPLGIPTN

What is called IC50 is the concentration at which inhibition is half-maximal. High values mean weaker potency, low ones greater potency. On to `CC(Oc1cc(Cl)cc(Cl)c1)c1nc(N)nc(N2CCN(C)CC2)n1` (stereo not drawn), for which the IC50 in experiment [1] is 3.95 µM. That is a single-digit micromolar value.
As for `CCC(Oc1cc(Cl)ccc1Cl)c1nc(N)nc(N2CCN(C)CC2)n1` (stereo not drawn), the IC50 in experiment [2] came to 7.4 µM; in experiment [3], 81.3 µM; in experiment [1] it was 11.2 µM.
`CC(Oc1ccc(Cl)c(Cl)c1)c1nc(N)nc(N2CCN(C)CC2)n1` (stereo not drawn) gave an IC50 in experiment [1] of 9.52 µM. That is a single-digit micromolar value.
`CCCCC(Oc1cccc(Cl)c1Cl)c1nc(N)nc(N2CCN(C)CC2)n1` (stereo not drawn): the IC50 turned out to be 13.2 µM in experiment [2], 29.9 µM in experiment [3] and 0.5 µM in experiment [4].
As a reminder, the Ki is a measure of affinity in units of concentration, obtained from inhibition or displacement. Read a high Ki as lower affinity. `CN1CCN(c2nc(N)nc(C(C)(C)Sc3ccccc3Cl)n2)CC1`: the Ki in experiment [5] turned out to be 5.92 µM; in experiment [6] it was 0.892 µM; in experiment [7], 0.727 µM; in experiment [8], 0.476 µM.
In the same order, the values of `CN1CCN(c2nc(N)nc(C(C)(C)Oc3ccccc3Cl)n2)CC1` are 5.63 µM, 0.573 µM, 0.797 µM and 0.079 µM.
What is called Emax is the size of the effect at its maximum, as opposed to the concentration needed. `COc1ccc(NS(=O)(=O)c2ccc(I)cc2)cc1N1CCN(C)CC1` came in with a maximal effect (Emax) in experiment [9] of 100%.
With `CCC(Sc1ccccc1)c1nc(N)nc(N2CCN(C)CC2)n1` (racemic), the Ki stood at 2.47 µM in [5], 0.427 µM in experiment [6], 7.27 µM in experiment [7] and 0.127 µM in [8].
In the case of `CC(Sc1cc(Cl)ccc1Cl)c1nc(N)nc(N2CCN(C)CC2)n1` (racemic), the inhibitory constant (Ki) in experiment [5] was determined as 61 µM; in experiment [7], 4.78 µM; in experiment [8], 0.169 µM. The molecule further registered an IC50 in experiment [1] of 9.19 µM.
`CCC(Sc1cccc(Cl)c1Cl)c1nc(N)nc(N2CCNCC2)n1` (racemic): the Ki was 3.32 µM in [5] and 0.115 µM in experiment [6].
As for `CC(Sc1ccc(Cl)c(Cl)c1)c1nc(N)nc(N2CCN(C)CC2)n1` (racemic), the Ki in experiment [5] amounted to 2.87 µM; in experiment [7], 0.53 µM; in [8] it was 0.152 µM.
`CCC(Sc1ccc(Cl)c(Cl)c1)c1nc(N)nc(N2CCN(C)CC2)n1` (racemic): the Ki in experiment [5] came to 5.16 µM; in experiment [6] it was 0.547 µM; in experiment [7], 0.897 µM; in experiment [8], 0.181 µM. In addition, the IC50 in [1] stood at 4.57 µM; in experiment [4] it was 15 µM.
As for `CCCC(Sc1cc(Cl)cc(Cl)c1)c1nc(N)nc(N2CCN(C)CC2)n1` (racemic), the Ki in [5] was determined as 8.63 µM; in experiment [6], 0.5 µM; in experiment [7], 0.663 µM; in [8], 0.074 µM.
In the case of `CCC(Oc1cccc(Cl)c1Cl)c1nc(N)nc(N2CCNCC2)n1` (racemic), the inhibitory constant (Ki) came out at 4.51 µM in [5], 0.118 µM in experiment [6] and 0.179 µM in experiment [8]. Besides, the IC50 in [4] stood at 10 µM.
`CCC(Sc1cc(Cl)cc(Cl)c1)c1nc(N)nc(N2CCN(C)CC2)n1` (racemic): the Ki stood at 6.04 µM in experiment [5], 0.178 µM in [6], 0.362 µM in [7] and 0.103 µM in experiment [8]. Further, in experiment [4], it took 9.8 µM to reach half-maximal inhibition (IC50).
Consider `CCCC(Sc1cc(Cl)ccc1Cl)c1nc(N)nc(N2CCN(C)CC2)n1` (racemic), for which the Ki in experiment [5] amounted to 6.21 µM; in [7] it was 0.971 µM; in [8], 0.009 µM.
`CCC(Oc1ccccc1)c1nc(N)nc(N2CCNCC2)n1` (racemic): the results for the Ki in experiment [5], in [6] and in experiment [8] were 8.15 µM, 4.82 µM and 0.414 µM, respectively. Moreover, the IC50 in [2] was 0.02 µM; in experiment [3], 42.1 µM.
Consider `CCCCC(Sc1cccc(Cl)c1Cl)c1nc(N)nc(N2CCN(C)CC2)n1` (racemic), for which the Ki in [5] is 1.8 µM; in experiment [6], 0.179 µM; in experiment [8], 0.169 µM. In addition, in experiment [4], half-maximal inhibition (IC50) was put at 9.95 µM.
Regarding `CCC(Oc1cc(Cl)ccc1Cl)c1nc(N)nc(N2CCNCC2)n1` (racemic), the Ki in [5] is 3.72 µM; in experiment [6], 0.062 µM.
In the same order, the values of `CCC(Sc1cc(Cl)ccc1Cl)c1nc(N)nc(N2CCNCC2)n1` (racemic) are 5.67 µM and 0.188 µM.
As to `CCC(Sc1cc(Cl)ccc1Cl)c1nc(N)nc(N2CCN(C)CC2)n1` (racemic), the Ki turned out to be 5.14 µM in experiment [5], 0.551 µM in experiment [6] and 1 µM in [7]. In experiment [4], the IC50 was 12.1 µM.
Turning to `CCC(Sc1cccc(Cl)c1Cl)c1nc(N)nc(N2CCN(C)CC2)n1` (racemic), the Ki stood at 2.56 µM in [5], 2.15 µM in experiment [6] and 0.879 µM in [7].
Consider `CC(Sc1cc(Cl)cc(Cl)c1)c1nc(N)nc(N2CCN(C)CC2)n1` (racemic), for which the inhibitory constant (Ki) turned out to be 6.04 µM in experiment [5], 0.178 µM in experiment [6], 0.362 µM in experiment [7] and 0.103 µM in experiment [8]. Further, in experiment [1], the IC50 was 5.37 µM.
In the case of `CC(=O)Oc1ccccc1C(=O)O` [ASPIRIN], it took 17.4 µM to reach half-maximal inhibition in experiment [10] (IC50). That is a double-digit micromolar value.
